Measurements from ChEMBL document CHEMBL1201862, “PubChem BioAssay data set” (2004).
Calls of active or inactive are those of the source.

Tests used:
[1] = M. tuberculosis H37Rv growth inhibitors, H37Rv strain (AID 1626); type: functional
[2] = biological target: Paired box protein Pax-8 (Homo sapiens, UniProt Q06710); assay: PAX8 transcriptional activity inhibition in RMG-I – RMG-I cells, luciferase, cherry-pick, dose response (AID 687027); type: functional, cell-based;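 further: luciferase reporter driven by Pax8 target thyroperoxidase promoter measured by SteadyGlo luminescence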
[3] = A2780 cell killing – plate reader, dry powder samples, cytotoxicity control, dose response (AID 743046); type: functional, cell-based
[4] = biological target: T1, Aminopeptidase N (Plasmodium falciparum FcB1/Columbia, UniProt O96935); assay: malaria alanyl aminopeptidase activity blockers – biochemical, fluorogenic H-Leu-NHMec substrate, 1536-well (AID 1445); parameters: species or system Plasmodium falciparum 3D7, 3D7
T1 sequence (O96935 whole entry): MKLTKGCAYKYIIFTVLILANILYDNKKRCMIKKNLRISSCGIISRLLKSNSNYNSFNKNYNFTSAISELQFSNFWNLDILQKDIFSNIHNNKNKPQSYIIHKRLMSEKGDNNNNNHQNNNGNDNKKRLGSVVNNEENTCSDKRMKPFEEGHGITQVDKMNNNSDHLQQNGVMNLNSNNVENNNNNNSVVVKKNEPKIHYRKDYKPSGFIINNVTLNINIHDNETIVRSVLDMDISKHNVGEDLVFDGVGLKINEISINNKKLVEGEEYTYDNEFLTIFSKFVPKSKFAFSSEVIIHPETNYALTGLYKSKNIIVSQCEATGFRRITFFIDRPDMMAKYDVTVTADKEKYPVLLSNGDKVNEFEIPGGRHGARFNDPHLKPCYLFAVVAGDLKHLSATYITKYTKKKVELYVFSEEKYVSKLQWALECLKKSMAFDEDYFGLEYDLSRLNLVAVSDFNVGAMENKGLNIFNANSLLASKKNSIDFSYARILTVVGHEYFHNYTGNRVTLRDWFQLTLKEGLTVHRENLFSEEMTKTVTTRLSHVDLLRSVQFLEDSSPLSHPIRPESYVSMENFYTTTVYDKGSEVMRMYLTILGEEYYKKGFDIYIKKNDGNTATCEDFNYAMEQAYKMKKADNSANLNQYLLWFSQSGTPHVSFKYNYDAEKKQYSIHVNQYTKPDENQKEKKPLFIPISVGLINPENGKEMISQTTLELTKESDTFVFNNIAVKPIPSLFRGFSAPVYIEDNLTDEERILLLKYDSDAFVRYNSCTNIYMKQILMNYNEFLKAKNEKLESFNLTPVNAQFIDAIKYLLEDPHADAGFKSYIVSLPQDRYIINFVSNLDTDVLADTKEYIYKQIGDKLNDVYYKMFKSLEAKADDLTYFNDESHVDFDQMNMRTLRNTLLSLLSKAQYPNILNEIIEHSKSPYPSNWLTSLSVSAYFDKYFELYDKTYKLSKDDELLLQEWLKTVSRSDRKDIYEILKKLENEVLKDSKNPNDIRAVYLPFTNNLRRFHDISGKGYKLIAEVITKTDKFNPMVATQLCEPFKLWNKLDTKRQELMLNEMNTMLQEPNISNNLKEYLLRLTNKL

[5] = biological target: T2, SUMO-activating enzyme (Homo sapiens, UniProt Q9UBT2); assay: blockers of SAE1/SAE2–UBC9 SUMO transfer – biochemical, HTRF, uHTS, primary screen (AID 2006); type: protein-complex assay
[6] = biological target: T2, SUMO-activating enzyme; assay: blockers of UBC9-mediated SUMO conjugation – biochemical, AlphaScreen, SUMOylation inhibitor project, confirmation (AID 2018); type: functional
[7] = reduced cellular PGC1a acetyl-lysine signal – cell-based, cherry-picked samples, dose response (AID 720514); type: functional;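 further: potency may reflect raised or lowered acetylation signal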
[8] = viability loss in Vero cells – cytotoxicity control for Vif-APOBEC3G degradation inhibitor project, dose response (AID 1117358); type: functional; conditions: Vero
[9] = OVCAR8 cell viability loss – plate reader, dry powder samples, PAX8 project, dose response (AID 743197); type: functional, cell-based; conditions: OVCAR-8
[10] = system: H9c2; assay: cells; type: functional, cell-based; conditions: Rattus norvegicus, H9c2, Myocardium;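 further: confirmatory concentration-response retest of ultra-high-throughput screening hits for modulation of myocardial damage; cell death induced by hydrogen peroxide oxidative stress; compound pretreatment for 60 min then peroxide exposure for 2 h; potency is for protecting the cells against peroxide damage rather than for killing them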

Sequence of Paired box protein Pax-8 (Q06710 whole entry): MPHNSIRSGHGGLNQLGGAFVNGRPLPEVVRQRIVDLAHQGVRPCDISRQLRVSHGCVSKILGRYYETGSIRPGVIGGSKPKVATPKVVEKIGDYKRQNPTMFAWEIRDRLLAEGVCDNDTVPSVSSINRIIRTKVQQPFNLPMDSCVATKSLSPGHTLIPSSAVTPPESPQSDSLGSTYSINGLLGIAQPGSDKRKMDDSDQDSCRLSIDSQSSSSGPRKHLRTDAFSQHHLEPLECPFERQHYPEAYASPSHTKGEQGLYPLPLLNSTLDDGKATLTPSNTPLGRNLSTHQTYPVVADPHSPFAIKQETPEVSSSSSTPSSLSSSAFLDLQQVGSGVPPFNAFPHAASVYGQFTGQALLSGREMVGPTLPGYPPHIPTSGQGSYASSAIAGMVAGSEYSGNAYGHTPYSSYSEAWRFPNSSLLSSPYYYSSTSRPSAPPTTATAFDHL
T2 sequence (Q9UBE0 whole entry): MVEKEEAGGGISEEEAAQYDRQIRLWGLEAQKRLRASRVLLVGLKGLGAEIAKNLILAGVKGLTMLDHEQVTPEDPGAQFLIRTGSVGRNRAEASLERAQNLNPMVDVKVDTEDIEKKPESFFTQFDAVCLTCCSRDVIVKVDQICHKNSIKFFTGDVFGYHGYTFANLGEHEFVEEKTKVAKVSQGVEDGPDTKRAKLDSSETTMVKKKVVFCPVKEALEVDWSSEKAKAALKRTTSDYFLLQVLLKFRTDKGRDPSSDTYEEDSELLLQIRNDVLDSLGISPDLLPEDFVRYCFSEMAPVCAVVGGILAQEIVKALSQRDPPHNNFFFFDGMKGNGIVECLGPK
T2 sequence (Q9UBT2 whole entry): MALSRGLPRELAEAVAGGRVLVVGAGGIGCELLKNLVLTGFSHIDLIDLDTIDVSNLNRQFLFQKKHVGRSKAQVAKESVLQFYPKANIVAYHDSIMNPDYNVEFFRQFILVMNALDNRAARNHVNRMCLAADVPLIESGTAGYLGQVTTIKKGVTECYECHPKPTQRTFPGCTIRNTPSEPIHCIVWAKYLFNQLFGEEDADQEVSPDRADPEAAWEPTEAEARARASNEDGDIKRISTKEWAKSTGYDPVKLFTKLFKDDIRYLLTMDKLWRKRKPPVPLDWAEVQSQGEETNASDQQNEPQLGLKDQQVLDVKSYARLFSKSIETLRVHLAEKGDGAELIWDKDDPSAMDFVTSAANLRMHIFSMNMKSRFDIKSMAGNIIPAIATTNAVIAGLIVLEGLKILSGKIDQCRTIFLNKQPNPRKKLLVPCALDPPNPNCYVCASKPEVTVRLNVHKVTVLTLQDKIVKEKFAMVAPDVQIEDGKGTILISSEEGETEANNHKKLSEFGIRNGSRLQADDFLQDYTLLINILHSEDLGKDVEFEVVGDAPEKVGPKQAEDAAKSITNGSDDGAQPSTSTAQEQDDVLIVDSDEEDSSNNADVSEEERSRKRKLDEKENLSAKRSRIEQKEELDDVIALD

O=C(Nc1nccs1)c1cn(-c2ccccc2)nc1-c1ccccc1
IC50 [1]: > 100 µM (active)

C[C@@H]1CN([C@@H](C)CO)C(=O)Cc2cc(NC(=O)NC3CCCCC3)ccc2O[C@@H]1CN(C)Cc1ccc(-c2ccccc2)cc1
AC50 [2]: 30.6 µM (active)
AC50 [3]: 0.296 µM (active)

O=C(O)Cc1c(O)nc2ccc(Br)cc2c1-c1ccccc1Cl
IC50 [4]: 23.1 µM (active)

CC(=O)Nc1ccc(S(=O)(=O)Nc2cccc(-c3csc(C)n3)c2)cc1
IC50 [4]: 58.2 µM (active)

Cc1ccc(S(=O)(=O)n2ccc(OC(=O)c3cccs3)n2)cc1
IC50 [5]: 94.8 µM (active)
IC50 [6]: 3.61 µM (active)

O=C(Nc1cccc(F)c1)N1CC(=O)N2[C@@H](CO)[C@@H](c3ccc(C#Cc4cccnc4)cc3)[C@@H]2C1
AC50 [7]: 4.54 µM (active)

O=C(CCNS(=O)(=O)c1ccc(Cl)cc1)NCc1cccnc1
CC50 [8]: > 40 µM (active)

C[C@@H]1CN([C@H](C)CO)C(=O)c2cc(NS(=O)(=O)c3cccs3)ccc2O[C@@H](C)CCCCO[C@H]1CN(C)Cc1ccc(C(F)(F)F)cc1
AC50 [2]: 8.66 µM (active)
AC50 [9]: > 70 µM (inactive)

C=CCOc1ccc(/C=N/c2ccc(OC)cc2)c(O)c1
IC50 [1]: > 100 µM (active)
IC50 [10]: 9.42 µM (active)
